The target of one data set is T1, RORα LBD (Homo sapiens, UniProt P35398).
T1 construct: purified GST-tagged (i) RORγ LBD or (ii) RORα LBD; purchased Life Technologies
T1 sequence (P35398 272-510 limits assumed): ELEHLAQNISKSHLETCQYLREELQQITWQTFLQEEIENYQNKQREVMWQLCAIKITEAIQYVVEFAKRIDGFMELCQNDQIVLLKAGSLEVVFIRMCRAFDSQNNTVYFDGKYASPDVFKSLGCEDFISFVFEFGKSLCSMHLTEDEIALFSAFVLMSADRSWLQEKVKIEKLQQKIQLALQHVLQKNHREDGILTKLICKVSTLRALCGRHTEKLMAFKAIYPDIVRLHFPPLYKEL
Description: TR-FRET D22 co-activator displacement from RORα LBD. The data set is classed as biochemical. From the text: (§1) The Time-Resolved Fluorescence Resonance Energy Transfer (TR-FRET) assay kit (Life Technologies) was used to measure compound efficacy to disrupt or enhance ligand-mediated interaction of the co-activator and co-repressor peptides with the purified GST-tagged (i) RORγ LBD or (ii) RORα LBD. The RORγ LBD and RORα LBD each have a basal level of interaction with the co-activator D22 or co-repressor NCoR1-D2 in the absence of ligand, thus it is possible to identify compounds that inhibit or induce RORγ and/or RORα co-activator/co-repressor interactions, thus determining RORα, RORγ, or RORα/RORγ compound selectivity. The assay was performed as per manufacturer's instructions and TR-FRET was assessed 2 and 20 hours post-assay initiation. Compounds were identified to (i) have no impact on either co-activator displacement or […] from the assessed LBD (ii) promote co-activator displacement from the assessed LBD (iii) promote co-repressor recruitment to the assessed LBD or (iv) concurrently promote co-activator displacement from the assessed LBD and co-repressor recruitment to the assessed LBD.

Another data set concerns FOXP3. Kind of data set: Real-Time qRT-PCR gene expression in TH17 cells (FOXP3). The class given is cell-based, human. The arrangement: key: A: No change in gene expression observed relative to DMSO treated Th17 cells; B: Decreased gene expression observed relative to DMSO treated Th17 cells; C: Increased gene expression observed relative to DMSO treated Th17 cells. The conditions noted are these: normalized to six reference genes. The procedure:
(§2) Peripheral blood mononuclear cells (PBMCs) were sourced from freshly prepared leukocyte enriched plasma (buffy coat) from healthy volunteers from which PBMCs were isolated by density gradient centrifugation using Ficoll-Paque™ PLUS (GE Healthcare). Naïve CD4+ T cells were isolated using the Naïve CD4+ T cell Isolation Kit II (Miltenyi Biotec) as per manufacturer's instructions. CD4+ T cells were plated at 5×10^4 cells/well in 96 well plates pre-coated with immobilized human (h)-αCD3 antibody (eBioscience) then differentiated to TH17 cells using h-αCD28, h-αIFN-γ, h-αIL-4, h-IL-6, h-IL-23, h-IL-1β, h-TGF-β1 (eBioscience) and maintained in a cell culture incubator at 37° C. with 5% CO2 in TexMACS Medium (Miltenyi Biotec) supplemented with 1% Penicillin/Streptomycin (Lonza) over 5 days.
(§3) RNA was isolated from TH17 cells and cDNA was synthesized using the Verso cDNA kit (Thermo Scientific) as per manufacturer's instructions. IL-17A, IL-17F, IL-21, IL-22, G-CSF, IL-23R and FOXP3 gene expression were determined for compound treated and untreated TH17 cell samples using Solaris qPCR Gene expression assays (Thermo Scientific) with an iCycler iQ Real-Time PCR Detection System (Bio-Rad). Individual gene expression was normalized to a panel of six reference genes (ACTB, TBP, HPRT1, PGK1, TFRC and PPIA) (Thermo Scientific) and analyzed by REST 2009 (Qiagen) in accordance to MIQE guidelines (Bustin et al. (2009) Clin. Chem, 55:611-622). The effects of compounds on TH17 cytokine gene expression are presented as fold change in mRNA levels of compound treated TH17 cells relative to DMSO treated cells in the table below.

Data set [1] is described as follows: TH17 cell viability (Prestoblue). The class given is cell-based. The conditions noted are these: human; 1 μM compound, after 5 days, percentage of DMSO treated cells. The procedure:
as §2
Cells were assayed for viability in the presence or absence of 1 μM compound using Prestoblue® Cell Viability Reagent (Life Technologies) as per manufacturer's instructions after 30 minutes incubation of TH17 cells with reagent. Absorbance was measured at 570 nm and 600 nm using a microplate reader (Perkin Elmer) and data were analyzed as per manufacturer's instructions. Cell viability was determined after 5 days and expressed as a percentage of DMSO treated cells.

The subject of a further data set is IL-22. Kind of data set: Real-Time qRT-PCR gene expression in TH17 cells (IL-22). The class given is cell-based, human. As to conditions: normalized to six reference genes. Set-up: key: A: No change in gene expression observed relative to DMSO treated Th17 cells; B: Decreased gene expression observed relative to DMSO treated Th17 cells; C: Increased gene expression observed relative to DMSO treated Th17 cells. The procedure: as §2, §3

In a further data set the target is T2, RORγ LBD (Homo sapiens, UniProt P51449).
T2 sequence (P51449 269-508 limits assumed): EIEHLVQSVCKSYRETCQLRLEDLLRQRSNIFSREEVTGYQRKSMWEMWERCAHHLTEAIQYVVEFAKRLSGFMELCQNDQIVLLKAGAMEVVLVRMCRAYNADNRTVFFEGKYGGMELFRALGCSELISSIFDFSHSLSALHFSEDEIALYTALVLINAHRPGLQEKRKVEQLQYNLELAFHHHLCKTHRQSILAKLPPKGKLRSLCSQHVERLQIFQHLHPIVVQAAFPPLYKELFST
Kind of data set: TR-FRET D22 co-activator displacement from RORγ LBD. The data set is classed as biochemical. Set-up: purified GST-tagged (i) RORγ LBD or (ii) RORα LBD; purchased Life Technologies.
Text: as §1

The next data set has as its system TH17 cells. Kind of data set: TH17 cellular proliferation (Prestoblue). The class given is cell-based. As to conditions: Homo sapiens, 120 h; 3 μM compound, after 5 day TH17 differentiation, relative to DMSO treated TH17 cells; read-out: % change in TH17 cell number. The procedure:
as §2
Cellular proliferation was assessed in the presence or absence of 3 μM compound using Prestoblue® Cell Viability Reagent (Life Technologies) as per manufacturer's instructions using absorbance as the output measured by a microplate reader (Perkin Elmer) after 30 minutes of incubation. A standard curve developed by plotting varying cell numbers versus absorbance was used to assess differences in cellular proliferation between compound treated or untreated cells after the 5 day TH17 differentiation period.

The mark [2] stands for this setting: TR-FRET assessed 2 hr post-assay initiation, read-out: RORα EC50 D22 co-activator displacement, 2 hr.
[3] abbreviates: TR-FRET assessed 20 hr post-assay initiation, read-out: RORα EC50 D22 co-activator displacement, 20 hr.
[4] abbreviates: TR-FRET assessed 2 hr post-assay initiation, read-out: RORγ EC50 D22 co-activator displacement, 2 hr.
The mark [5] stands for this setting: TR-FRET assessed 20 hr post-assay initiation, read-out: RORγ EC50 D22 co-activator displacement, 20 hr.

Molecules are shown by their SMILES. Like-named read-outs stand apart in the source and are kept apart here.

As for `Cc1cc(-c2ccc3c(c2)CCCN3Cc2ccc(C(O)(C(F)(F)F)C(F)(F)F)cc2)[nH]n1` [Example 1, 1,1,1,3,3,3-hexafluoro-2-(4-((6-(3-methyl-1H-pyrazol-5-yl)-3,4-dihydroquinolin-1(2H)-yl)methyl)phenyl)propan-2-ol], the EC50 at RORα LBD (setting [2]) was above 30 µM; on RORα LBD (setting [3]), below 30 µM; at RORγ LBD (setting [4]), below 30 µM; at RORγ LBD (setting [5]) it was below 30 µM. The “Fold change in mRNA levels of compound treated TH17 cells relative to DMSO treated cells, FOXP3” value in the data set with FOXP3 is recorded as “C”. In addition, in data set [1], the viability at 5 days, 1 µM was above 80%. In addition, in the data set with IL-22, the “Fold change in mRNA levels of compound treated TH17 cells relative to DMSO treated cells, IL-22” value is on record as “B”. For the same molecule, in the data set with TH17 cells, the inhibition at 3 µM is above 50%.
For `O=C1CCc2cc(-c3cn[nH]c3)ccc2N1Cc1ccc(C(O)(C(F)(F)F)C(F)(F)F)cc1` [Example 5, 1-(4-(1,1,1,3,3,3-hexafluoro-2-hydroxypropan-2-yl)benzyl)-6-(1H-pyrazol-4-yl)-3,4-dihydroquinolin-2(1H)-one], the concentration giving a half-maximal response (EC50) at RORα LBD (setting [2]) is above 30 µM; on RORα LBD (setting [3]), above 30 µM; on RORγ LBD (setting [4]), above 30 µM; at RORγ LBD (setting [5]), below 30 µM. Besides, in the data set with FOXP3, the “Fold change in mRNA levels of compound treated TH17 cells relative to DMSO treated cells, FOXP3” value is on record as “A”. The viability at 5 days, 1 µM in data set [1] is below 80%. Also, in the data set on IL-22, the “Fold change in mRNA levels of compound treated TH17 cells relative to DMSO treated cells, IL-22” value is reported as “A”. Moreover, in the data set on TH17 cells, the inhibition at 3 µM was at most 50%.
Regarding `Cc1cc(-c2ccc3c(c2)CCC(=O)N3Cc2ccc(C(O)(C(F)(F)F)C(F)(F)F)cc2)[nH]n1` [Example 4, 1-(4-(1,1,1,3,3,3-hexafluoro-2-hydroxypropan-2-yl)benzyl)-6-(3-methyl-1H-pyrazol-5-yl)-3,4-dihydroquinolin-2(1H)-one], the EC50 on RORα LBD (setting [2]), on RORα LBD (setting [3]), at RORγ LBD (setting [4]) and at RORγ LBD (setting [5]) was above 30 µM each time. In the data set with FOXP3, the “Fold change in mRNA levels of compound treated TH17 cells relative to DMSO treated cells, FOXP3” value is reported as “A”. In data set [1], the viability at 5 days, 1 µM is above 80%. For the same molecule, the “Fold change in mRNA levels of compound treated TH17 cells relative to DMSO treated cells, IL-22” value in the data set with IL-22 is given as “B”. Further, the inhibition at 3 µM in the data set with TH17 cells was at most 50%.
Consider `Cc1n[nH]c(-c2ccc3c(c2)CCCN3Cc2ccc(C(O)(C(F)(F)F)C(F)(F)F)cc2)n1` [Example 3, 1,1,1,3,3,3-hexafluoro-2-(4-((6-(3-methyl-1H-1,2,4-triazol-5-yl)-3,4-dihydroquinolin-1(2H)-yl)methyl)phenyl)propan-2-ol], for which the EC50 was above 30 µM at RORα LBD (setting [2]), above 30 µM on RORα LBD (setting [3]), below 30 µM on RORγ LBD (setting [4]) and above 30 µM on RORγ LBD (setting [5]). The “Fold change in mRNA levels of compound treated TH17 cells relative to DMSO treated cells, FOXP3” value in the data set on FOXP3 is recorded as “A”. For the same molecule, in data set [1], the viability at 5 days, 1 µM was above 80%. Also, in the data set with IL-22, the “Fold change in mRNA levels of compound treated TH17 cells relative to DMSO treated cells, IL-22” value is “B”. Besides, the inhibition at 3 µM in the data set on TH17 cells was above 50%.
Consider `Cc1n[nH]c(-c2ccc3c(c2)CCC(=O)N3Cc2ccc(C(O)(C(F)(F)F)C(F)(F)F)cc2)n1` [Example 6, 1-(4-(1,1,1,3,3,3-hexafluoro-2-hydroxypropan-2-yl)benzyl)-6-(3-methyl-1H-1,2,4-triazol-5-yl)-3,4-dihydroquinolin-2(1H)-one], for which the 50% effective concentration (EC50) at RORα LBD (setting [2]), at RORα LBD (setting [3]), on RORγ LBD (setting [4]) and on RORγ LBD (setting [5]) was below 30 µM throughout. For the same molecule, the “Fold change in mRNA levels of compound treated TH17 cells relative to DMSO treated cells, FOXP3” value in the data set with FOXP3 is recorded as “C”. For the same molecule, in data set [1], the viability at 5 days, 1 µM is above 80%. The “Fold change in mRNA levels of compound treated TH17 cells relative to DMSO treated cells, IL-22” value in the data set with IL-22 is recorded as “B”. The inhibition at 3 µM with TH17 cells is at most 50%.
As for `OC(c1ccc(CN2CCCc3cc(-c4cn[nH]c4)ccc32)cc1)(C(F)(F)F)C(F)(F)F` [Example 2, 2-(4-((6-(1H-pyrazol-4-yl)-3,4-dihydroquinolin-1(2H)-yl)methyl)phenyl)-1,1,1,3,3,3-hexafluoropropan-2-ol], the concentration giving a half-maximal response (EC50) at RORα LBD (setting [2]), at RORα LBD (setting [3]), at RORγ LBD (setting [4]) and at RORγ LBD (setting [5]) was below 30 µM throughout. The “Fold change in mRNA levels of compound treated TH17 cells relative to DMSO treated cells, FOXP3” value in the data set with FOXP3 is “C”. Besides, in data set [1], the viability at 5 days, 1 µM is above 80%. Besides, in the data set with IL-22, the “Fold change in mRNA levels of compound treated TH17 cells relative to DMSO treated cells, IL-22” value is “B”. In the data set on TH17 cells, the inhibition at 3 µM is above 50%.
